Results on 31 molecules are retold here after patent publication US20160222014A1, “COMPOUNDS FOR REGULATING FAK AND/OR SRC PATHWAYS” (ASANA BIOSCIENCES, LLC, priority 2013, published 2016).

One test addresses T1, AURKB (Aurora B) enzyme (Homo sapiens, UniProt Q96GD4).
T1 construct: purchased Invitrogen PVR 130
Put plainly: Aurora B HTRF assay. The format is biochemical. Conditions: read-out: AuroraB IC50. Summed up:
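HTRF kinase assay with 5 nM Aurora B and 50 nM ULight-PLK (Ser137) peptide, with a reagent at 30 μM final; 1 h at rt. Reaction stopped with EDTA, and phospho-peptide detected with 2 nM Eu-anti-P-PLK(Ser137) antibody after 1 h at rt, read as HTRF.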

For another test, the target named is JAK2 (Homo sapiens, UniProt O60674). Put plainly: JAK2 biochemical potency. Conditions: read-out: JAK2 HTRF IC50.
The target in the next test is T2, recombinant human FAK1 (Homo sapiens, UniProt Q05397).
T2 construct: fused on or other part: N-terminal 6xHis tag
Briefly: FAK1 HTRF assay. The format is biochemical. Summed up:
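His-tagged human FAK1 (residues 692–end, Sf9-expressed), 10 nM final, with 0.5 μM biotinylated gastrin-precursor Tyr87 peptide and a 10 μM final reagent in pH 7.4 buffer, 45 min at rt. Detection used Eu anti-pTyr antibody plus SA-APC (665/620 nm). Compounds top concentration 10 μM; IC50 from % inhibition.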

In a further test the target is T3, Recombinant Src enzyme (Homo sapiens, UniProt P12931).
T3 construct: purchased Millipore 14-326; host or cells: Sf21 insect cells
Put plainly: Src HTRF assay. It is filed as biochemical. A digest of the protocol:
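Sf21-expressed recombinant Src at 5 nM final with biotinylated N-terminally tagged Tyk2 peptide substrate at 0.5 μM final; a component freshly made in enzyme assay buffer pH7.4 was used at 10 μM final. Buffer, supplements, compound handling and procedure as in the FAK HTRF assay; dasatinib included.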

In test [1] the target is T4, FAK phosphorylated at Y397 in HEK-FAK cell line overexpressing human FL FAK protein (Homo sapiens, UniProt Q05397).
T4 construct: expressed in transfected cells
Briefly: Cell based assay, Phospho-FAK ELISA. Particulars: HEK stb; read-out: pFAK EC50 (μM) HEK stb. The source says: D. Cell Based Assay-Phospho-FAK ELISA
The DuoSet IC ELISA (R&D systems—Cat no. DYC4528-5) provided the basic components required for the development of sandwich ELISAs to measure Focal Adhesion Kinase 1 (FAK) phosphorylated at Y397 in cell lysates. An immobilized capture antibody specific for FAK, also known as PTK2, binds both phosphorylated and unphosphorylated protein. After washing away unbound material, a biotinylated detection antibody specific for FAK phosphorylated at Y397 was used to detect only phosphorylated protein, utilizing a standard Streptavidin-HRP format. The cell line used for the assay was a stable HEK-FAK cell line overexpressing human FL FAK protein, which was generated as follows.
HEK293 cells (ATCC® CRL-1573™, 10801 University Boulevard, Manassas, Va. 20110 USA) were seeded in four 100 mm petri dishes at a seeding density of 1.5×10^6 cells per plate and incubated overnight at 37° C. in a 5% CO2 incubator. The transfection mix was prepared as follows. (A) 10 μg DNA (pCDNA4 V5/HisA vector containing Zeocin as mammalian selection marker, procured from Invitrogen) with the full length human FAK gene represented by the nucleotide sequence provided in NCBI Reference Sequence: NM_153831.3, SEQ ID NO: 1:
was added to 1.5 mL Opti-MEM® (reduced serum media is a modification of Eagle's Minimum Essential Media, buffered with HEPES and sodium bicarbonate and supplemented with hypoxanthine, thymidine, sodium pyruvate, L-glutamine, trace elements and growth factors commercially available from Invitrogen) and incubated at room temperature for 5 minutes. (B) 30 μL Lipofectamine™ Transfection reagent (Life Technologies) was added to 1.5 mL Opti-MEM® and incubated at room temperature for 5 minutes. Following this, (a) and (b) were mixed and incubated at room temperature for 20 minutes. Media was removed from cells and washed with 1× phosphate buffered saline (PBS) and the transfection mix prepared above was mixed with 3 mL of Opti-MEM®, added to the cells and incubated at 37° C. Four hours later, 6 mL of 20% Dulbecco's Modified Eagle Medium (DMEM) was added to the plates and incubated at 37° C. in a 5% CO2 incubator. Approximately 72 hours after transfection, cells were subcultured at various dilutions with fresh medium containing 0.8 mg/mL Zeocin™ (Life Technologies). Cells were replenished with selective medium every 3-4 days until cell foci were identified in the FAK transfected cells and most of the cells died in the control plates. Cells from these foci were grown in the presence of selective media and the expression of FAK was confirmed by Western Blotting. Over expression of FAK in the stably-transfected cells was quantified in the cell-based ELISA assay described below by determining the signal window, with a signal window of 2 or above considered to be robust). The HEK-FAK stable cell line thus was maintained in 0.8 mg/mL Zeocin™ (Life Technologies) and used in cell-based ELISA to assess autophosphorylation of FAK.
(i) Materials • 1. Phospho-FAK (Y397)-Capture Antibody • 2. Phospho-FAK (Y397)-Detection Antibody • 3. Streptavidin-HRP • 4. Cells used for the assay-HEK over expressing human FL FAK protein
(ii) Solutions • PBS—137 mM NaCl, 2.7 mM KCl, 8.1 mM Na2HPO4, 1.5 mM KH2PO4, pH 7.2-7.4, 0.2 μm filtered. • Wash Buffer—0.05% Tween20™ in PBS, pH 7.2-7.4 • Block Buffer—1% BSA, 0.05% NaN3, in PBS, pH 7.2-7.4. • IC Diluent #1-1% BSA in PBS, pH 7.2-7.4, 0.2 μm filtered. • IC Diluent #8-1 mM EDTA, 0.5% Triton™ X-100, 5 mM NaF in PBS, pH 7.2-7.4. IC Diluent #8 was also the base buffer for IC Diluent #3, IC Diluent #7, and Lysis. • Buffer #6. […]

Chain of JAK2 (O60674 whole entry, species assumed): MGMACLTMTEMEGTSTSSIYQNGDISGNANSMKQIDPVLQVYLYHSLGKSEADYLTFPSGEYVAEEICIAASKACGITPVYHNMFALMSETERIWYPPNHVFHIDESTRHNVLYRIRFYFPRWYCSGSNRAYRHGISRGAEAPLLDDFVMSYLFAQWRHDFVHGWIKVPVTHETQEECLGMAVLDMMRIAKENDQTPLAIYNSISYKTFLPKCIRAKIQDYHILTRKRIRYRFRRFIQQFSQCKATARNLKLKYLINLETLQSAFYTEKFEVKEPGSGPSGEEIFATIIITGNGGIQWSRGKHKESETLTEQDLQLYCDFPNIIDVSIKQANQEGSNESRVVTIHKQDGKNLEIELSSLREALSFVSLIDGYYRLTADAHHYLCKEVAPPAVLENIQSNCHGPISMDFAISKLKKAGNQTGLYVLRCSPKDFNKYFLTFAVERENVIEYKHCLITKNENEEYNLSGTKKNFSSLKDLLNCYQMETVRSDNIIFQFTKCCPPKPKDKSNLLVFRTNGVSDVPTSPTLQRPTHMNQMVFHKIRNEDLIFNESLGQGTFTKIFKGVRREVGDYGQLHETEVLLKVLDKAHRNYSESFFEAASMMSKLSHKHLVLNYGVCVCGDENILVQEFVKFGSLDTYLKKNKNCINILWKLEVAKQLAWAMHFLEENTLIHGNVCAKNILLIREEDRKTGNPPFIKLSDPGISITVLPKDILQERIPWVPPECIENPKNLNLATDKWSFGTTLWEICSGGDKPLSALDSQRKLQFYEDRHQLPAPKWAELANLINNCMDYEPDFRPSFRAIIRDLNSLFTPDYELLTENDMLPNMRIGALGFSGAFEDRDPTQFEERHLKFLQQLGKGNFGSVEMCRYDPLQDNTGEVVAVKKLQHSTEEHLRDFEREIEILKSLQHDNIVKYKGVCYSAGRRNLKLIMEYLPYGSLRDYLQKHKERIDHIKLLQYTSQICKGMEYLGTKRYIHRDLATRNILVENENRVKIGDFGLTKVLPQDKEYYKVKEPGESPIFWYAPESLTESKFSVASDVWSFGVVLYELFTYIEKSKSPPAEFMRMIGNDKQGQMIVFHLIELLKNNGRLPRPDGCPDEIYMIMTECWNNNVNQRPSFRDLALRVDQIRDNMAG
T2 sequence (Q05397 422-680 limits assumed): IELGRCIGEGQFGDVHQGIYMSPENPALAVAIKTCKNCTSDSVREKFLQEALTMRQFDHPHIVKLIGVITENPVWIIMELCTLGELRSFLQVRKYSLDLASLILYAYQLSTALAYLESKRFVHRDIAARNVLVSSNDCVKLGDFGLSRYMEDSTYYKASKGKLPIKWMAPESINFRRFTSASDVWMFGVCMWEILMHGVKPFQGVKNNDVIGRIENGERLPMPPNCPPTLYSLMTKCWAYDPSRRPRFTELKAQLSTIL
T1 sequence (Q96GD4 whole entry): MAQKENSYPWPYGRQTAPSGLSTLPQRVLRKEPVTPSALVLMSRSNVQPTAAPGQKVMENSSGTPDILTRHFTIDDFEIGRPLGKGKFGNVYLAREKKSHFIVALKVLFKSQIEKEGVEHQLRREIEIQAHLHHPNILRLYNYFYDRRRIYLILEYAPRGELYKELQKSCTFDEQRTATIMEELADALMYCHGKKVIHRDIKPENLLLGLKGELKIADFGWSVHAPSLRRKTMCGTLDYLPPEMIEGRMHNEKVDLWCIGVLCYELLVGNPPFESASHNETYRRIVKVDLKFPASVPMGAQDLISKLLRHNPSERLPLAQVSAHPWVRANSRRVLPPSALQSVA
T3 sequence (P12931 whole entry): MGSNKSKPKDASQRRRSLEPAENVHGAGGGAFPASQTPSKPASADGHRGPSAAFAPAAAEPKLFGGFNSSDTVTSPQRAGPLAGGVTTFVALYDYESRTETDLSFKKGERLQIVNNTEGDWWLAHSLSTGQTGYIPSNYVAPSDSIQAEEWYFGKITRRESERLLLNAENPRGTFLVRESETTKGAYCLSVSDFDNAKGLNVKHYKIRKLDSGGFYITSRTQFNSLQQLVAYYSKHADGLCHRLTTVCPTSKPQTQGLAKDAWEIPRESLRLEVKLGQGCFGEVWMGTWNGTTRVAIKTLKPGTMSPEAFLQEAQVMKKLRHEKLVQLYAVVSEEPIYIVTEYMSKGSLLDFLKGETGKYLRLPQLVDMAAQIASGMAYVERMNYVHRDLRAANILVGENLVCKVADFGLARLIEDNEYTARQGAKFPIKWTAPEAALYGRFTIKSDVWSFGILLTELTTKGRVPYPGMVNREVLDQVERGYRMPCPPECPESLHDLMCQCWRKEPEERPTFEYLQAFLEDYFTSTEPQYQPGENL
T4 sequence (Q05397 whole entry): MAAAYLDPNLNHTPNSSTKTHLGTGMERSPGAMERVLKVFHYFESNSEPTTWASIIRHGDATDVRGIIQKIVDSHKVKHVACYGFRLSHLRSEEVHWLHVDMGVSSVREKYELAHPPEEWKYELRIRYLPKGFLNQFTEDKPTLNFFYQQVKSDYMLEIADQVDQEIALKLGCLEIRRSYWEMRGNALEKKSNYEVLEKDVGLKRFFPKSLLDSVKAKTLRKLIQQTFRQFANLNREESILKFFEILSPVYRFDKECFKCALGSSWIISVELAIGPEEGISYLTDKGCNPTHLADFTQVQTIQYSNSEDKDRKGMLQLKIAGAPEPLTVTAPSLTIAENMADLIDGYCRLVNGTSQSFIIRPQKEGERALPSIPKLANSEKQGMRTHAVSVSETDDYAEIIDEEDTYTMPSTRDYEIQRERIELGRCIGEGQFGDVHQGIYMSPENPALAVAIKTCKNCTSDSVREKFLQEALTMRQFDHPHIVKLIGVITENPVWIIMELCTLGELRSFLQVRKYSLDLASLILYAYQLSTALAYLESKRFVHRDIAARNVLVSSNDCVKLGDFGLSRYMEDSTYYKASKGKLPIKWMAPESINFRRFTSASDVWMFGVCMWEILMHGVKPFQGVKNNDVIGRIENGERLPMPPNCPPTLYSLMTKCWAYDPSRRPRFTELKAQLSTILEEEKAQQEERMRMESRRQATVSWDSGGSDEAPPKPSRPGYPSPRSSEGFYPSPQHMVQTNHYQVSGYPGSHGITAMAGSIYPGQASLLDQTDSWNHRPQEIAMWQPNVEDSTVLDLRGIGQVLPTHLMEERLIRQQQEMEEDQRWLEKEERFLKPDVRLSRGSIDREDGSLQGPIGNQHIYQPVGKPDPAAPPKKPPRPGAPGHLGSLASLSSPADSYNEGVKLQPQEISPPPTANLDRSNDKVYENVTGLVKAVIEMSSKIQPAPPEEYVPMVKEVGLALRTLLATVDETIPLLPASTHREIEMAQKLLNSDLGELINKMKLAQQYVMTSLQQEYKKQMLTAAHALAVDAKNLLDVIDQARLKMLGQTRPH

In the case of `CC(=O)Nc1ccc(Nc2ncc3ccn(Cc4cccnc4N(C)S(C)(=O)=O)c3n2)cc1` [Example 35], the IC50 on AURKB (Aurora B) enzyme and on JAK2 was under 20 nM each time.
Turning to `CN(C)CCOc1cccc(Nc2ncc3ccn(Cc4cccnc4N(C)S(C)(=O)=O)c3n2)c1` [Example 91], the half-maximal inhibitory concentration (IC50) at AURKB (Aurora B) enzyme and on JAK2 was under 20 nM each time.
On to `CC(=O)Nc1ccc(Nc2ncc3ccn(Cc4ccccc4OC(F)F)c3n2)cc1` [Example 95], for which, on JAK2, the IC50 is under 20 nM.
The same measure, in the same setting: the value for `CN(c1ncccc1Cn1ccc2cnc(Nc3cccc(N4CCOCC4)c3)nc21)S(C)(=O)=O` [Example 99] was under 20 nM.
In the case of `CC(=O)Nc1cccc(Nc2ncc3ccn(Cc4ccccc4N(C)S(C)(=O)=O)c3n2)c1` [Example 100], the IC50 at recombinant human FAK1 and at JAK2 was under 20 nM throughout.
With `CN1CCN(c2ccc(Nc3ncc4ccn(Cc5cccnc5N(C)S(C)(=O)=O)c4n3)cc2)CC1` [Example 101], the half-maximal inhibitory concentration (IC50) on JAK2 was under 20 nM.
Regarding `CN(c1ccccc1Cn1ccc2cnc(Nc3ccc4c(c3)CCC(=O)N4)nc21)S(C)(=O)=O` [Example 103], the 50% inhibitory concentration (IC50) on recombinant human FAK1 and at JAK2 was under 20 nM in each case.
Turning to `CN(C)c1ccc(Nc2ncc3ccn(Cc4cccnc4N(C)S(C)(=O)=O)c3n2)cc1` [Example 105], the IC50 at AURKB (Aurora B) enzyme and on JAK2 was under 20 nM in each case.
For the molecule `CN(c1ncccc1Cn1ccc2cnc(Nc3ccc(N4CCNCC4)cc3)nc21)S(C)(=O)=O` [Example 116], the IC50 at AURKB (Aurora B) enzyme and on JAK2 was under 20 nM in each case.
Turning to `CN(c1ncccc1Cn1ccc2cnc(Nc3ccc4ncsc4c3)nc21)S(C)(=O)=O` [Example 123], the IC50 at AURKB (Aurora B) enzyme and on JAK2 was under 20 nM throughout.
Take `CN(c1ncccc1Cn1ccc2cnc(Nc3ccc4[nH]cc(C5=CCNCC5)c4c3)nc21)S(C)(=O)=O` [Example 152]: the values for the IC50 at recombinant human FAK1 and at Recombinant Src enzyme were under 20 nM and over 1000 nM, respectively. For the same molecule, in test [1], the EC50 is over 1 µM.
Take `CN(c1ncccc1Cn1ccc2cnc(Nc3cccc(S(N)(=O)=O)c3)nc21)S(C)(=O)=O` [Example 165]: the concentration for half-maximal inhibition (IC50) at AURKB (Aurora B) enzyme and at JAK2 was under 20 nM throughout.
For the molecule `O=S(=O)(c1cccc2cccnc12)n1ncc2cnc(Nc3ccc(N4CCNCC4)cc3)cc21` [Example 210], the results for the IC50 at AURKB (Aurora B) enzyme and on JAK2 were under 20 nM and over 1000 nM, respectively.
Regarding `CN(c1ncccc1Cn1ccc2cnc(Nc3ccc4c(c3)NCCO4)nc21)S(C)(=O)=O` [Example 215], the IC50 on recombinant human FAK1 and on Recombinant Src enzyme was under 20 nM in each case. The EC50 in test [1] was over 1 µM.
Consider `O=S(=O)(c1ccccc1Cl)n1ccc2cnc(Nc3ccc(N4CCNCC4)cc3)nc21` [Example 232], for which the IC50 at Recombinant Src enzyme and at AURKB (Aurora B) enzyme was under 20 nM in each case. Moreover, the EC50 in test [1] is over 1 µM.
As for `O=S(=O)(c1cccc2cnccc12)n1ccc2cnc(Nc3ccc(N4CCNCC4)cc3)nc21` [Example 235], the half-inhibitory concentration (IC50) at AURKB (Aurora B) enzyme and at JAK2 was under 20 nM in each case.
For `N#Cc1ccccc1S(=O)(=O)n1ccc2cnc(Nc3ccc(N4CCNCC4)c(F)c3)nc21` [Example 245], the IC50 on Recombinant Src enzyme and on AURKB (Aurora B) enzyme was under 20 nM each time. Further, in test [1], the 50% effective concentration (EC50) is over 1 µM.
As to `COc1ccccc1S(=O)(=O)n1ncc2cnc(Nc3ccc(N4CCNCC4)cc3)cc21` [Example 342], the half-maximal inhibitory concentration (IC50) on Recombinant Src enzyme was over 1000 nM; on AURKB (Aurora B) enzyme, under 20 nM. The half-maximal effective concentration (EC50) in test [1] is over 1 µM.
For the molecule `Cc1ccc2cccc(S(=O)(=O)n3ccc4cnc(Nc5ccc(N6CCNCC6)cc5)cc43)c2n1` [Example 369], the figures for the half-maximal inhibitory concentration (IC50) on Recombinant Src enzyme and at AURKB (Aurora B) enzyme were over 1000 nM and under 20 nM, respectively. The half-maximal effective concentration (EC50) in test [1] is over 1 µM.
As for `COc1cc(N2CCN(CCO)CC2)ccc1Nc1cc2c(ccn2S(=O)(=O)c2cccc3cccnc23)cn1` [Example 386], the half-maximal inhibitory concentration (IC50) at recombinant human FAK1 was under 20 nM; on Recombinant Src enzyme, over 1000 nM. For the same molecule, the 50% effective concentration (EC50) in test [1] was under 0.02 µM.
As to `COc1cc(N2CCN(CCO)CC2)ccc1Nc1cc2c(cn1)cnn2S(=O)(=O)c1cccc2cccnc12` [Example 387], the 50% inhibitory concentration (IC50) on recombinant human FAK1 was under 20 nM; at Recombinant Src enzyme it was over 1000 nM. For the same molecule, the half-maximal effective concentration (EC50) in test [1] is under 0.02 µM.
As to `Cc1ccnc2c(S(=O)(=O)n3ccc4cnc(Nc5ccc(N6CCNCC6)cc5)nc43)cccc12` [Example 398], the results for the IC50 on Recombinant Src enzyme and on AURKB (Aurora B) enzyme were over 1000 nM and under 20 nM, respectively. Besides, the EC50 in test [1] was over 1 µM.
As for `COc1cc(N2CCC(O)CC2)ccc1Nc1cc2c(ccn2S(=O)(=O)c2cccc3cccnc23)cn1` [Example 400], the IC50 at recombinant human FAK1 was under 20 nM; at Recombinant Src enzyme, over 1000 nM. The EC50 in test [1] is under 0.02 µM.
On to `COCCN1CCN(c2ccc(Nc3cc4c(ccn4S(=O)(=O)c4cccc5cccnc45)cn3)c(OC)c2)CC1` [Example 444], for which the half-inhibitory concentration (IC50) was under 20 nM on recombinant human FAK1 and over 1000 nM at Recombinant Src enzyme. Further, the half-maximal effective concentration (EC50) in test [1] was under 0.02 µM.
With `COc1cc(N2CCN(CCOC(C)=O)CC2)ccc1Nc1cc2c(ccn2S(=O)(=O)c2cccc3cccnc23)cn1` [Example 451], the results for the half-maximal inhibitory concentration (IC50) at recombinant human FAK1 and on Recombinant Src enzyme were under 20 nM and over 1000 nM, respectively. The concentration giving a half-maximal response (EC50) in test [1] is under 0.02 µM.
For `C[C@H]1CN(c2ccc(Nc3ncc4ccn(Cc5cccnc5N(C)S(C)(=O)=O)c4n3)cc2)CCN1` [Example 471, N-Methyl-N-(3-{2-[4-((S)-3-methyl-piperazin-1-yl)-phenylamino]-pyrrolo[2,3-d]pyrimidin-7-ylmethyl}-pyridin-2-yl)-methanesulfonamide], on JAK2, the IC50 was under 20 nM.
Turning to `CN(C)C1CCN(c2ccc(Nc3ncc4c(n3)N(S(=O)(=O)c3cccc5cccnc35)CC4(C)C)cc2)CC1` [Example 500], the half-inhibitory concentration (IC50) on recombinant human FAK1 was under 20 nM; at JAK2, over 1000 nM.
`N#Cc1ccccc1S(=O)(=O)n1ccc2cnc(Nc3ccc4c(c3)CC(=O)N4)cc21` [Example 514]: the IC50 at recombinant human FAK1 was under 20 nM; at Recombinant Src enzyme it was over 1000 nM. The concentration giving a half-maximal response (EC50) in test [1] was over 1 µM.
With `C[C@@H]1CN(c2ccc(Nc3ncc4ccn(Cc5ccccc5NS(C)(=O)=O)c4n3)cc2)CCN1` [Example 547], the IC50 on Recombinant Src enzyme and on AURKB (Aurora B) enzyme was under 20 nM in each case. Also, the concentration giving a half-maximal response (EC50) in test [1] was over 1 µM.
Consider `CC1(C)CN(c2ccccn2)c2nc(Nc3ccc4c(c3)CC(=O)N4)ncc21` [Example 740], for which the half-maximal inhibitory concentration (IC50) on Recombinant Src enzyme and on AURKB (Aurora B) enzyme was over 1000 nM throughout. Besides, the 50% effective concentration (EC50) in test [1] was over 1 µM.
With `CN(C)C1CCN(c2ccc(Nc3ncc4c(n3)N(S(=O)(=O)c3cccc5ccccc35)CC4(C)C)cc2)CC1` [Example 755], the IC50 at Recombinant Src enzyme is over 1000 nM. The EC50 in test [1] is over 1 µM.
